The text below walks through data of paper PMC5063900, “A phase 1 study of the safety, tolerability, pharmacokinetics, and pharmacodynamics of TAK-063, a selective PDE10A inhibitor” (Psychopharmacology, 2016).

The data set in a line: Food effect on pharmacokinetics, 100 mg fed vs fasting. Format: in vivo, human. As for the experimental part: Healthy Japanese and non-Japanese subjects between 18 and 55 years of age were recruited to participate in the study. Criteria for exclusion included prior treatment with any investigational compound within 30 days of the first TAK-063 dose, a positive test for drugs of abuse or nicotine, and an increased risk for suicide. Subjects were randomized into 1 of 6 dose cohorts (3, 10, 30, 100, 300, and 1000 mg), with each cohort containing 11 TAK-063 subjects (five Japanese, six non-Japanese) and three placebo subjects (one Japanese, two non-Japanese) receiving a single dose under fasting conditions. […] Plasma concentrations of TAK-063 and its metabolite M-I were subsequently measured by validated liquid chromatography-tandem mass spectrometry with a validated range of 0.5 to 1000 ng/mL for both analytes. The PK parameters analyzed for TAK-063 and its metabolite M-I in plasma and urine included area under the plasma concentration-time curve from time 0 to infinity (AUC (0-inf)), maximum observed plasma concentration (C max), time to reach C max (T max), terminal elimination half-life (T 1/2), oral clearance (CL/F), volume of distribution (Vz/F), and renal clearance (CLr). […] A power model was used to evaluate dose proportionality by race for fasted subjects; in the event of no observed race effect, dose proportionality was assessed for all subjects. […]

Turning to `COc1cn(-c2ccc(-n3cccn3)cc2F)nc(-c2ccnn2-c2ccccc2)c1=O` [TAK-063], where the note is “fed (standard meal)”, the “Median T max” value is reported as 6 h. Further, the “Oral bioavailability, fed relative to fasting” value (standard meal) is recorded as “approximately 2 fold”.
